Tests used:
Type in all cases: cell-based, human
AML-193 = assay: Heme line growth assay (Cell-Titer Glo), 4-day and extended 7-day; set-up: key to Sensitivity 7-day: *: insensitive; **: intermediate; ***: sensitive
Method: (§1) A follow-up screen was performed on an expanded panel of cell lines of heme lineage in a 4-day growth assay. Growth was assessed by Cell-Titer Glo measurements on day 0 and day 4.
(§2) Compound 1, of which diffuse large B cell lymphoma (DLBCL) lines were particularly sensitive (8/11 or 73%). A subset of the heme lines that were of intermediate sensitivity (defined as >50% and <75% growth rate inhibition) or insensitive (defined as <50% growth rate inhibition) to compound 1 in this follow-up screen were subjected to extended growth assays to evaluate if increased treatment time modulated their sensitivity profile. Specifically, these heme lines were pretreated with Compound 1 for three days at the indicated concentrations and then re-plated for a standard 4-day growth assay in fresh media/drug.

BDCM = assay: as above; set-up: key to Sensitivity 7-day: *: insensitive; **: intermediate; ***: sensitive
Method: as §1, §2

F36P = assay: as above; set-up: key to Sensitivity 7-day: *: insensitive; **: intermediate; ***: sensitive
Method: as §1, §2

HEL = assay: as above; set-up: key to Sensitivity 7-day: *: insensitive; **: intermediate; ***: sensitive
Method: as §1, §2

HuNS1 = assay: as above; set-up: key to Sensitivity 7-day: *: insensitive; **: intermediate; ***: sensitive
Method: as §1, §2

KG-1 = assay: as above; set-up: key to Sensitivity 7-day: *: insensitive; **: intermediate; ***: sensitive
Method: as §1, §2

KMS12BM = assay: as above; set-up: key to Sensitivity 7-day: *: insensitive; **: intermediate; ***: sensitive
Method: as §1, §2

LP1 = assay: as above; set-up: key to Sensitivity 7-day: *: insensitive; **: intermediate; ***: sensitive
Method: as §1, §2

MOLP-2 = assay: as above; set-up: key to Sensitivity 7-day: *: insensitive; **: intermediate; ***: sensitive
Method: as §1, §2

REC-1 = assay: as above; set-up: key to Sensitivity 7-day: *: insensitive; **: intermediate; ***: sensitive
Method: as §1, §2

SUDHL4 = assay: as above; set-up: key to Sensitivity 7-day: *: insensitive; **: intermediate; ***: sensitive
Method: as §1, §2

TF1 = assay: as above; set-up: key to Sensitivity 7-day: *: insensitive; **: intermediate; ***: sensitive
Method: as §1, §2

THP-1 = assay: as above; set-up: key to Sensitivity 7-day: *: insensitive; **: intermediate; ***: sensitive
Method: as §1, §2

U266B1 = assay: as above; set-up: key to Sensitivity 7-day: *: insensitive; **: intermediate; ***: sensitive
Method: as §1, §2

BTS49 = assay: Triple negative breast cancer cell line panel, 96 hours; details: BTS49, 96 hours
From the text: (§3) A panel of triple negative cancer cell lines (TNBC) were screened to evaluate whether a subset of TNBC could potentially benefit from treatment with compound 1 as a single agent.

HCC1143 = assay: as above; details: HCC1143, 96 hours
From the text: as §3

HCC1806 = assay: as above; details: HCC1806, 96 hours
From the text: as §3

HCC38 = assay: as above; details: HCC38, 96 hours
From the text: as §3

[1] = 3 days pretreatment then 4-day growth assay
[2] = acute myeloid leukemia, 4-day growth assay

Cc1ccccc1-c1ccc(-c2cc(C(=O)O)c3c(c2)nnn3C)cc1 [Compound 1, 1-methyl-5-(2′-methyl-[1,1′-biphenyl]-4-yl)-1H-benzo[d][1,2,3]triazole-7-carboxylic Acid]
Sensitivity 7-day (AML-193; AML-193, 3 days pretreatment then 4-day growth assay): ***
Sensitivity 4-day (AML-193; AML-193, acute myeloid leukemia, 4-day growth assay): ** (intermediate)
Sensitivity 7-day (BDCM; [1]): ***
Sensitivity 4-day (BDCM; [2]): ** (intermediate)
Sensitivity 7-day (F36P; [1]): ***
Sensitivity 4-day (F36P; [2]): ** (intermediate)
Sensitivity 7-day (HEL; [1]): ***
Sensitivity 4-day (HEL; [2]): ** (intermediate)
Sensitivity 7-day (HuNS1; HuNS1, 3 days pretreatment then 4-day growth assay): ***
Sensitivity 4-day (HuNS1; HuNS1, multiple myeloma, 4-day growth assay): * (insensitive)
Sensitivity 7-day (KG-1; KG-1, 3 days pretreatment then 4-day growth assay): ***
Sensitivity 4-day (KG-1; KG-1, acute myeloid leukemia, 4-day growth assay): * (insensitive)
Sensitivity 7-day (KMS12BM; [1]): ***
Sensitivity 4-day (KMS12BM; multiple myeloma, 4-day growth assay): ** (intermediate)
Sensitivity 7-day (LP1; LP1, 3 days pretreatment then 4-day growth assay): ***
Sensitivity 4-day (LP1; LP1, multiple myeloma, 4-day growth assay): * (insensitive)
Sensitivity 7-day (MOLP-2; MOLP-2, 3 days pretreatment then 4-day growth assay): ***
Sensitivity 4-day (MOLP-2; MOLP-2, multiple myeloma, 4-day growth assay): ** (intermediate)
Sensitivity 7-day (REC-1; REC-1, 3 days pretreatment then 4-day growth assay): ***
Sensitivity 4-day (REC-1; REC-1, mantle cell lymphoma, 4-day growth assay): * (insensitive)
Sensitivity 7-day (SUDHL4; SUDHL4, 3 days pretreatment then 4-day growth assay): ***
Sensitivity 4-day (SUDHL4; SUDHL4, diffuse large B cell lymphoma, 4-day growth assay): ** (intermediate)
Sensitivity 7-day (TF1; TF1, 3 days pretreatment then 4-day growth assay): ***
Sensitivity 4-day (TF1; TF1, acute myeloid leukemia, 4-day growth assay): * (insensitive)
Sensitivity 7-day (THP-1; THP-1, 3 days pretreatment then 4-day growth assay): ***
Sensitivity 4-day (THP-1; THP-1, acute myeloid leukemia, 4-day growth assay): ** (intermediate)
Sensitivity 7-day (U266B1; U266B1, 3 days pretreatment then 4-day growth assay): ***
Sensitivity 4-day (U266B1; U266B1, multiple myeloma, 4-day growth assay): * (insensitive)
Sensitivity (BTS49): insensitive
Sensitivity (HCC1143): insensitive
Sensitivity (HCC1806): insensitive
Sensitivity (HCC38): insensitive
